Values quoted from earlier work in patent US20040062739A1, “Use of carbohydrates to improve skin barrier function” (SOCIETE L'OREAL S.A., priority 2000, published 2004).

Legend:
Set-up in all cases: key: −: no activity; ε, +, ++: specific activity; ε, +, ++: specific activity; ε, +, ++: specific activity
Details in all cases: glycosidase sold by Clonezyme; cited from earlier work
GLY-05 = tested on: GLY-05
GLY-08 = tested on: GLY-08
GLY-03 = tested on: GLY-03
GLY-04 = tested on: GLY-04
GLY-09 = tested on: GLY-09
GLY-01 = tested on: GLY-01
GLY-07 = tested on: GLY-07
GLY-06 = tested on: GLY-06
GLY-02 = tested on: GLY-02
GLY-10 = tested on: GLY-10

Row | SMILES | substrate specificity GLY-05 (GLY-05) | substrate specificity GLY-08 (GLY-08) | substrate specificity GLY-03 (GLY-03) | substrate specificity GLY-04 (GLY-04) | substrate specificity GLY-09 (GLY-09) | substrate specificity GLY-01 (GLY-01) | substrate specificity GLY-07 (GLY-07) | substrate specificity GLY-06 (GLY-06) | substrate specificity GLY-02 (GLY-02) | substrate specificity GLY-10 (GLY-10)
1 | CC(=O)NC1C(O)CC(Oc2ccc([N+](=O)[O-])cc2)(C(=O)O)OC1C(O)C(O)CO [α-D-N-acetylneuramide] | − | − | − | − | − | − | − | − | − | −
2 | OC[C@H]1O[C@H](O)[C@H](O)[C@@H](O)[C@H]1O [α-D-galactose] | − | − | − | − | − | − | − | − | − | +
3 | OC[C@H]1O[C@H](O)[C@H](O)[C@@H](O)[C@@H]1O [α-D-glucose] | ++ | ++ | ++ | ++ | ++ | ++ | ++ | ++ | ++ | −
4 | OC[C@H]1O[C@H](O)[C@@H](O)[C@@H](O)[C@@H]1O [α-D-mannose] | − | − | − | − | − | − | − | − | − | −
5 | C[C@@H]1O[C@@H](O)[C@@H](O)[C@H](O)[C@@H]1O [α-L-fucose] | − | − | − | − | − | − | − | − | − | −
6 | C[C@@H]1O[C@@H](O)[C@H](O)[C@H](O)[C@H]1O [α-L-rhamnose] | − | − | − | − | − | − | − | − | − | −
7 | CC(=O)NC1C(OC2C(CO)OC(Oc3ccc([N+](=O)[O-])cc3)C(NC(C)=O)C2O)OC(CO)C(O)C1O [β-D-N-acetylch obloside] | − | − | − | − | − | − | − | − | − | −
8 | OC[C@H]1O[C@H](O[C@H]2[C@H](O)[C@@H](O)[C@H](O)O[C@@H]2CO)[C@H](O)[C@@H](O)[C@@H]1O [β-D-cellobiose] |  | ε | ε | ε | ε | − | + | + | ++ | −
9 | C[C@H]1O[C@@H](O)[C@H](O)[C@@H](O)[C@H]1O [β-D-fucose] | ++ | + | ++ | ++ | ++ | − | ++ | ++ | ++ | −
10 | OC[C@H]1O[C@@H](O)[C@H](O)[C@@H](O)[C@H]1O [β-D-galactose] | + | + | ε | + | − | − | ε | ε | ++ | −
11 | OC[C@H]1O[C@@H](O)[C@H](O)[C@@H](O)[C@@H]1O [β-D-glucose] | − | − | − | − | − | − | − | − | − | −
12 | O=C(O)[C@H]1O[C@@H](Oc2ccc([N+](=O)[O-])cc2)[C@H](O)[C@@H](O)[C@@H]1O [β-D-glucuronide] | − | − | − | − | − | − | ε | − | − | −
